Experimental data published in publication PMC4754331, “Programming of metabolic effects in C57BL/6JxFVB mice by in utero and lactational exposure to perfluorooctanoic acid” (Archives of Toxicology, 2015).
Like-named read-outs stand apart in the source and are kept apart here.

What was measured:
C57BL/6JxFVB hybrid mice [1] = assay: Spontaneous locomotor activity test; format: in vivo; conditions: males and females; 300 µg/kg vs control; data not shown
Protocol: (§1) One week later, at 20 weeks of age, an insulin tolerance test (ITT) was performed in the same animals as used for the GTT. Mice were not fasted to avoid low glucose baseline levels which, after an insulin injection, could lead to hypoglycemia. At the start of the experiment, a baseline blood sample was taken (0 min). […] The experiment was performed over two morning sessions, with 1.75 h between the first and last tested animal in each session, and animals were treated in a random order. At the age of 22–25 weeks, control and 300 µg/kg bw/d animals were used for a spontaneous locomotor activity test. After an acclimatization period of minimal 6 h, activity of the mice was continuously registered on four parallel platforms for 36 h (males) or 60 h (females), starting at the beginning of the dark phase (6.30 PM) of the first day.
Some measurements included only control and one or two dose groups and could therefore not be analyzed as dose–responses. GTT was therefore evaluated by repeated-measures or nested (to account for litter covariance) two-way ANOVAs (Graphpad Prism 5.0, R) to detect differences at the different time points and between the areas under the curve (AUC). Activity measurement, ucp1 expression, WAT adipocyte size and the proxy for cell number were also tested with a nested ANOVA (R). […]

[2] = cited from earlier work
C57BL/6JxFVB hybrid mice [3] = assay: Insulin tolerance test; format: in vivo; conditions: males and females; 300 µg/kg vs control; 20 weeks; data not shown
Protocol: as §1

C57BL/6JxFVB hybrid mice [4] = assay: Histopathology of liver; format: in vivo; conditions: for Liver nuclear dysmorphology: count of individuals with Grade 0 / Liver nuclear dysmorphology: count of individuals with Grades 1, 2: p = 0.06 vs control
[5] = tested on: mice (CD-1, NMRI, Balb/c, C57BL/6); set-up: key to Time of effect: P: permanent effect on body weight throughout study; D: delayed (late onset) of effect; T: transient effect; E: effect observed during treatment; conditions: cited from earlier work
[6] = males, 300 and 3000 µg PFOA/kg body weight/day combined, p = 0.07 vs control
[7] = Balb/c and C57BL/6, 1000-5000-10,000 µg/kg bw/d, oral gavage PND21-49 (5d/w), ref Yang et al. ([2009])
[8] = Balb/c, C57BL/6, 2500 (Balb), 7500 (BL6) µg/kg bw/d, oral gavage PND21-49 (5d/w), ref Zhao et al. ([2012])
[9] = CD-1, 5000 µg/kg bw/d, oral gavage GD1-17, GD8-17, GD12-17, ref White et al. ([2007])
[10] = CD-1, 10-100-1000 µg/kg bw/d, oral gavage GD10-17, ref Macon et al. ([2011])
[11] = CD-1, 10-100-1000 µg/kg bw/d, oral gavage PND18-20, ref Dixon et al. ([2012])
[12] = CD-1, 10–5000 µg/kg bw/d, oral gavage GD1-17, ref Hines et al. ([2009])
[13] = CD-1, 300-1000-3000 µg/kg bw/d, oral gavage GD1-17, ref Macon et al. ([2011])
[14] = CD-1, 1000, 3000, 5000, 10,000, 20,000, 40,000 µg/kg bw/d, oral gavage GD1-17, ref Lau et al. ([2006])
[15] = CD-1, 1000, 5000, 0/1000 + 5 ng/mL via drinking water, GD1-17, ref White et al. ([2011b])
[16] = CD-1, 1000–40,000 µg/kg bw/d, oral gavage GD1-17, ref Lau et al. ([2006])
[17] = CD-1, 3000, 5000 µg/kg bw/d, oral gavage GD1-17, ref White et al. ([2009])
[18] = CD-1, dose 3 [sic], 5 µg/kg bw/d, oral gavage GD1-17, ref Wolf et al. ([2007])
[19] = NMRI, 580-8,700 µg/kg bw/d, oral gavage PND10, ref Johansson et al. ([2008])

SMILES: O=C(O)C(F)(F)C(F)(F)C(F)(F)C(F)(F)C(F)(F)C(F)(F)C(F)(F)F [PFOA, Perfluorooctanoic acid]
- Energy expenditure: physical activity (C57BL/6JxFVB hybrid mice [1]): did not show an effect
- Elimination half-life in adult mice ([2]; adult mice, ref Lau et al. [2006]): 17 days
- Time to steady-state level in serum of mice ([2]; ref Lau et al. [2006]): ≤ 1 week
- Lowering of levels in offspring after maternal exposure was stopped ([2]; within 6 weeks, ref Wolf et al. ([2007])): 40 times
- Glucose homeostasis: ITT (C57BL/6JxFVB hybrid mice [3]): did not show an effect
- Liver eosinophilic alteration: count of individuals with Grades 0, 1 (C57BL/6JxFVB hybrid mice [4]; females, 300 and 3000 combined): 11
- Liver eosinophilic alteration: count of individuals with Grades 2, 3 (C57BL/6JxFVB hybrid mice [4]; females, 300 and 3000 combined): 8
- Liver fatty change: count of individuals with Grade 0 (C57BL/6JxFVB hybrid mice [4]; females, 300 and 3000 combined): 17
- Liver fatty change: count of individuals with Grades 1, 2, 3 (C57BL/6JxFVB hybrid mice [4]; females, 300 and 3000 combined): 2
- Liver nuclear dysmorphology: count of individuals with Grade 0 (C57BL/6JxFVB hybrid mice [4]; females, 300 and 3000 combined): 12
- Liver nuclear dysmorphology: count of individuals with Grades 1, 2 (C57BL/6JxFVB hybrid mice [4]; females, 300 and 3000 combined): 7
- Liver eosinophilic alteration: count of individuals with Grade 0 (C57BL/6JxFVB hybrid mice [4]; [6]): 14
- Liver eosinophilic alteration: count of individuals with Grades 1, 2 (C57BL/6JxFVB hybrid mice [4]; [6]): 6
- Liver fatty change: count of individuals with Grade 0 (C57BL/6JxFVB hybrid mice [4]; males, 300 and 3000 combined): 16
- Liver fatty change: count of individuals with Grades 1, 2, 3, 4 (C57BL/6JxFVB hybrid mice [4]; males, 300 and 3000 combined): 4
- Liver nuclear dysmorphology: count of individuals with Grade 0 (C57BL/6JxFVB hybrid mice [4]; males, 300 and 3000 combined): 13
- Liver nuclear dysmorphology: count of individuals with Grades 1, 2 (C57BL/6JxFVB hybrid mice [4]; males, 300 and 3000 combined): 7
- Endpoint bw (age) F [5, 7]: ↓ PND45-46
- Other relevant effects of PFOA [5, 7]: PND49: delayed vaginal opening; ↑ abs/rel liver weight; inhibition mammary gland/uterine development
- Time of effect [5, 7]: E
- Endpoint bw (age) F [5, 8]: ↓ PND42-49 (BL6)
- Other relevant effects of PFOA [5, 8]: delayed/absent vaginal opening; lack of estrous cycling; ↓ovarian steroid hormonal synthetic enzyme levels
- Time of effect [5, 8]: E
- Other relevant effects of PFOA ([5]; C57BL/6/Bkl, 300 µg/kg bw/d, diet GD1-PND0, ref Onishchenko et al. ([2011])): M + F: changes in exploratory behavior; M: ↑ activity
- Other relevant effects of PFOA ([5]; C57BL/6, 5000 µg/kg bw/d, oral gavage PND21-49 (5d/w), ref Zhao et al. ([2010])): ↑ serum progesterone; ↑ mammary gland response to estrogen and/or progesterone
- Time of effect ([5]; CD-1, 5000 µg/kg bw/d, oral gavage GD1-17, GD8-17, GD12-17, no follow-up of animals, ref White et al. ([2007])): P^c
- Endpoint bw (age) F [5, 9]: ↓ PND1-20
- Endpoint bw (age) M [5, 9]: ↓ PND1-20
- Other relevant effects of PFOA [5, 9]: altered mammary gland development in dams + female pups
- Endpoint bw (age) F [5, 10]: – PND1-21
- Endpoint bw (age) M [5, 10]: – PND1-21
- Other relevant effects of PFOA [5, 10]: M + F: hepatomegaly; F: mammary gland developmental abnormalities
- Endpoint bw (age) F [5, 11]: – PND21
- Other relevant effects of PFOA [5, 11]: PND21: ↑ abs/rel uterine weight (lowest dose)
- Endpoint bw (age) F ([5]; CD-1, 10, 100, 300, 1000, 3000, 5000 µg/kg bw/d, oral gavage GD1-17, ref Hines et al. ([2009])): ↓ PND1,21 (high doses); ↑ 20-40w (low doses)
- Other relevant effects of PFOA [5, 12]: 21–33w: ↑ insulin; ↑ leptin (low doses); 18 m, weights abs/rel: ↓ abdominal white fat (high doses); ↑ interscapular fat (high doses); – liver
- Time of effect [5, 12]: D T
- Endpoint bw (age) F [5, 13]: – PND7-85
- Endpoint bw (age) M [5, 13]: – PND7-85
- Other relevant effects of PFOA [5, 13]: M + F: delayed mammary gland development
- Endpoint bw (age) F [5, 14]: ↓ PND1-25; – 6.5w-60w
- Endpoint bw (age) M [5, 14]: ↓ PND1-25; – 6.5w-60w
- Other relevant effects of PFOA [5, 15]: delay in mammary gland development and/or lactational differentiation (P0, F1, F2)
- Time of effect [5, 15]: T
- Endpoint bw (age) F ([5]; CD-1, 1000, 5000, 0/1000 + 5 ng/mL via drinking water, oral gavage GD1-17, GD1-end of study (5 ng/mL groups), ref White et al. ([2011b])): ↓ PND42 (F1); ↑ PND14-22 (F2)
- Other relevant effects of PFOA [5, 16]: M: earlier preputial separation
- Time of effect [5, 16]: T
- Endpoint bw (age) F [5, 17]: ↓ PND21-85
- Other relevant effects of PFOA [5, 17]: weaning age: abnormal (delay) mammary gland development; ↑ rel liver weight
- Time of effect [5, 17]: T
- Endpoint bw (age) M ([5]; CD-1, 3000, 5000 µg/kg bw/d, oral gavage GD1-17, ref Wolf et al. ([2007])): ↓ PND1-22; ↑ PND85 - 35w (dose 3000)
- Endpoint bw (age) F [5, 18]: ↓ PND1-22
- Other relevant effects of PFOA [5, 18]: M + F, PND22: ↑ abs/rel liver weight
- Time of effect [5, 18]: T; D (dose 3000)
- Endpoint bw (age) M [5, 19]: – PND10 + 28
- Other relevant effects of PFOA [5, 19]: 8/16w: neurotoxicity
- Most sensitive developmental BMDL ([5]; ref Lau et al. [2006]): 616 µg/kg bw/d
